Starred links: 1 amine or outer side, 2 acyl side, 3 side chain; linkers in the order of their positions; H or OH if unused. Positions of bridges follow the written chain, without caps; N, C: chain ends. Non-standard residues stand in square brackets, D forms with d. Residues, ends and D or L forms follow the SMILES beside them. Chains are numbered I, II in the order given. Actinocin(9to1) = Cc1c2oc3c(C)ccc(C(=O)[*:1])c3nc-2c(C(=O)[*:2])c(N)c1=O; NMeV = CN[C@H](C(=O)O)C(C)C; Sar = CNCC(=O)O
How the values were obtained:
WEHI-13VAR cells = experiment: TNF bioassay: TNF-induced death of WEHI-13VAR cells in the presence of AcD (MTT); format: cell-based
Method: WEHI-13VAR is a fibrosarcoma cell line that is extremely sensitive to TNF-induced cell death in the presence of AcD (0.5 μg/ml) and is commonly used in TNF bioassays. In TNF bioassays, the presence of AcD is a standard approach designed to increase the sensitivity of cells to TNF. TNF acts by binding to its two functionally distinct receptors, TNFR1 and TNFR2. To identify which TNF receptor was expressed on WEHI-13VAR cells, we measured the expression of TNFR1 and TNFR2 on WEHI-13VAR by FACS. […] In the case of labeling with PE anti-mouse TNFR2 antibody, the expression of TNFR2 was higher than in the case of labeling with the isotype control by 50%. […] Furthermore, in order to investigate which TNF receptor is responsible for TNF-induced cell death, we stimulated the cells with TNF, and co-cultured the cells with anti-TNFR1 antibody or anti-TNFR2 antibody for 24 hours. Cell viability was measured by MTT. […]
CHIs are injections developed in China and approved by the China Food and Drug Administration. […] We screened eleven CHIs and assessed their effects on WEHI-13VAR cells by TNF bioassay. […]
WEHI-13VAR cells were seeded in 96-well plates at 1.5×10^4 cells/well. […] Absorbance values were read at 570 nm using a 1420 Multilabel counter victor (PerkinElmer, Waltham, Mass., USA). Cell viability was expressed as the ratio of absorbance values between the sample and the blank control group.

Tregs = experiment: TNF-induced up-regulation of Tregs and Foxp3/TNFR2 expression in cultured lymphocytes (FACS); format: cell-based; conditions: in vitro
Method: FIG. 5. […] Lymphocytes were cultured in the presence of IL-2 (10 ng/mL) or IL-2+TNF (10 ng/mL each), with medium alone or with scutellarin (25-50 μM) for 72 hours. (A) Typical FACS analysis of Tregs is shown. The data as shown are representative of at least three separate experiments with similar results. The numbers in the FACS plots show the proportion of cells in the respective quadrants. (B) Summary of the proportion of CD4^+Foxp3^+ cells in CD4^+ cells. (C) Summary of MFI of Foxp3 expression on Tregs. (D) Typical FACS plots of the proportion of TNFR2^+ cells in Tregs. (E) Summary of the proportion of TNFR2^+ cells in CD4^+Foxp3^+Tregs. (F) Summary of MFI of TNFR2 expression on Tregs (by gating on Foxp3^+ cells) (N=3, mean±SEM). ** p<0.01, *** p<0.001, compared to the “TNF+IL-2” group. The data as shown are representative of at least three separate experiments with similar results.
We then explored the effect of scutellarin on the TNF-induced proliferation of Tregs in an in vitro experiment. […]
Lymphocytes were obtained from spleens, axillary lymph nodes, inguinal lymph nodes and mesenteric lymph nodes of mice. […] The proliferation of Tregs was assessed by CFSE dilution assay, and the proportion of Foxp3^+ cells in the CD4^+ subset and the proportion of TNFR2 expressed on Tregs were analyzed by FACS. […] The expression of Foxp3 and TNFR2 was analyzed by FACS. […]

SMILES	death of WEHI-13VAR cells induced by AcD (WEHI-13VAR cells; AcD 0.5 μg/ml alone)	cytotoxicity against WEHI-13VAR cells (WEHI-13VAR cells; scutellarin 12.5-200 μM)	50% lethal dose of scutellarin (Tregs)
Cc1c2oc3c(C)ccc(C(=O)N[C@@H]4C(=O)N[C@H](C(C)C)C(=O)N5CCC[C@H]5C(=O)N(C)CC(=O)N(C)[C@@H](C(C)C)C(=O)O[C@@H]4C)c3nc-2c(C(=O)N[C@@H]2C(=O)N[C@H](C(C)C)C(=O)N3CCC[C@H]3C(=O)N(C)CC(=O)N(C)[C@@H](C(C)C)C(=O)O[C@@H]2C)c(N)c1=O [AcD, actinomycin D, reference compound] (I: T[dV]P[Sar][NMeV] / II: T[dV]P[Sar][NMeV]; ester I:1-I:C, II:1-II:C; linker I:N-II:N via Actinocin(9to1))	approximately 30%		
O=C(O)[C@H]1O[C@@H](Oc2cc3oc(-c4ccc(O)cc4)cc(=O)c3c(O)c2O)[C@H](O)[C@@H](O)[C@@H]1O [scutellarin]		no significant cytotoxicity against WEHI-13VAR cells	higher than 100 μM

From patent US11266670B2, “Use of scutellarin in a medicament and a modulator for preventing or treating diseases, medicament, and modulator” (University of Macau, priority 2019, dated 2022)
